Measurements reported in patent US20200352914A1, “METHODS OF TREATING HYPERTENSION WITH ACTIVATORS OF TIE-2” (Aerpio Pharmaceuticals, Inc., priority 2019, published 2020).

Experiments:
recombinant human VE-PTP = recombinant human VE-PTP (Homo sapiens, UniProt P23467); test: Human VE-PTP (HPTPβ) phosphatase assay on eNOS Tyr81; assay type: biochemical; conditions: pre-incubation with 10 μmol/L; cell-free
Description: Confluent monolayers of human endothelial cells expressing FLAG-tagged eNOS were cultured overnight in MCDB131 containing 0.1% BSA and then stimulated with Yoda1 (1 μmol/L) for 30 minutes to elicit phosphorylation of eNOS on Tyr81. eNOS-FLAG immunoprecipitates were used as substrates to test the ability of recombinant human VE-PTP to dephosphorylate eNOS Tyr81 in a cell-free in vitro reaction. Briefly after washing the FLAG-eNOS, immunoprecipitates were suspended in phosphatase assay buffer containing Tris/HCl pH 7.5 (50 mmol/L), NaCl (150 mmol/L), EDTA (1 mmol/L), and EDTA-free protease inhibitors mix at room temperature. An aliquot of the eNOS-FLAG immunoprecipitate was immediately processed for immunoblotting (input) and the remainder was divided into 6 identical aliquots and incubated for up to 10 minutes at room temperature in phosphatase assay buffer containing DTT (3 mmol/L) and recombinant human VE-PTP (100 U/50 μl reaction). Experiments were performed in the presence of solvent (1% DMSO) or Compound 2 (10 μmol/L) and reactions were stopped by boiling samples for 10 minutes in SDS sample buffer. eNOS phosphorylation was then analyzed by SDS-PAGE and immunoblotting.

[1] = tested on: endothelium-intact aortic rings; test: Vascular reactivity of aortic rings from C57/BL6 mice (myograph, TABLE 28); parameters: species or system mouse
Description: Aortic rings from eight to ten-week old male C57/BL6 mice were used to investigate the effects of Compound 2 on endothelial function. Twelve to fourteen-week old male Ins2^Akita mice and non-diabetic littermate controls were used to study the effects of Compound 2 on diabetes-associated endothelial dysfunction. Myograph experiments were performed in modified Krebs-Henseleit solution. Aortae were dissected free of adhering tissue, cut into 2-mm segments, and mounted in 5-mL myograph chambers under a basal tension of 1 g. Relaxation to cumulatively increasing concentrations (0.001-100 μmol/L) of Compound 2 or solvent (DMSO) was assessed in endothelium-intact aortic segments pre-contracted with phenylephrine (1 μmol/L) in the absence or presence of N^ω-nitro-L-arginine methyl ester (L-NAME; 300 μmol/L).
To assess the role for VE-PTP in the regulation of vascular reactivity, endothelium-intact rings of murine aortae were incubated with increasing concentrations of Compound 2.
FIG. 24 panels A-D illustrate the effect of Compound 2 on endothelial function. FIG. 24 panel A illustrates concentration dependent effect of Compound 2 on the tone of endothelium-intact aortic rings. Experiments were performed in the absence and presence of an eNOS inhibitor, L-NAME (300 μmol/L). FIG. 24 panels B-D illustrate the effect of solvent (Sol, DMSO) and Compound 2 (1, 3, or 10 μmol/L) on the contractile response to phenylephrine (PE; FIG. 24 panel B), and relaxation induced by either sodium nitroprusside (SNP; FIG. 24 panel C) or acetylcholine (ACh; FIG. 24 panel D). The dotted line in FIG. 24 panel D represents responses in endothelium-denuded aortic rings; n=5 mice/group.

Sprague-Dawley rats = test: MCT lung injury rat model of pulmonary hypertension (TABLE 30); assay type: in vivo; conditions: subset (n=3) of the monocrotaline group; s.c. injection at day 21
Description: The MCT lung injury rat model was used to assess the effects of a Tie-2 activator disclosed herein, Compound 2, as a vasodilator of the pulmonary vasculature. At day 0, rats were treated with a single dose of 60 mg/kg monocrotaline (N=5) and compared to control rats (N=5), which were treated with vehicle. Animals from both groups underwent normal rodent care until day 21. At day 21, rats underwent simultaneous cannulation of the carotid and pulmonary artery/right ventricle. Arterial pressure was measured before and after subcutaneous injection of vehicle. Following the washout period of time, rats underwent the same measurements before and after subcutaneous injection of Compound 2. Hemodynamic endpoints included systemic pressure (via carotid catheterization) and pulmonary vascular pressure (right ventricular systolic pressure) vs. true pulmonary arterial pressure.
FIG. 31 panel A illustrates the effects of Compound 2 on mean arterial blood pressure (ABP), heart rate, and right ventricular pressure. Each time point represents a beat-to-beat analysis for each variable over a 2-min period, which were then averaged. […] All animals received Compound 2 at time=0 min.
After obtaining hemodynamic data, the rats were euthanized to assess the extent of RV hypertrophy, a marker of PH. […] RV hypertrophy was calculated based on the Fulton index using the following weight ratio: (RV/(LV+S)).

eNOS = eNOS and Akt phosphorylation in human endothelial cells (immunoprecipitation, immunoblotting); assay type: cell-based
Description: Confluent monolayers of human endothelial cells expressing FLAG-tagged eNOS cultured overnight in MCDB131 containing 0.1% BSA and then incubated with increasing concentrations of Compound 2 (0.3-30 μmol/L) or solvent (DMSO) for 30 minutes. In separate experiments, human endothelial cells were cultured overnight in MCDB131 containing 0.1% BSA and then incubated treated with Compound 2 (30 μmol/L) or solvent for 30 minutes and then stimulated with Yoda1 (1 μmol/L) or solvent for an additional 30 minutes. To inhibit Src, cells were pre-incubated with PP2 (1 μmol/L) for 30 min before incubation with Compound 2 and stimulation with Yoda1. After two washes with cold PBS, cells were collected with the aid of cell scrapers in a lysis buffer containing Tris/HCl pH 7.5 (50 mmol/L), NaCl (150 mmol/L), Triton X-100 (1%), NaPPi (10 mmol/L), NaF (20 mmol/L), orthovanadate (2 mmol/L), okadaic acid (10 nmol/L), β-glycerophosphate (50 mmol/L), phenylmethylsulfonyl fluoride (230 μmol/L), and EDTA-free protease inhibitors mix. The cell mixture was incubated for 30 minutes at 4° C. with vortexing, followed by centrifugation at 13000 rpm for 10 minutes at 4° C. To assess the eNOS-VE-PTP interaction, the following modifications were applied: 1) cells were incubated with the lysis buffer for one hour on an end-over-end rocker at 4° C. and gently vortexed until no cell clumps were observed; 2) lysates were not centrifuged after lysis. FLAG-tagged eNOS was immunoprecipitated using 30 μL of packed Anti-FLAG M2 Affinity Gel per mg protein lysate overnight. The recovered immunoprecipitates were washed three times with the lysis buffer, eluted by boiling samples for 10 minutes in SDS sample buffer, and then analyzed by SDS-PAGE and immunoblotting.
Protein samples were separated by SDS-PAGE and then transferred to […] nitrocellulose membranes. Membranes were incubated overnight with primary antibodies against phospho-Tyr81 eNOS, phospho-Ser1177 eNOS, phospho-Ser633 eNOS, eNOS, phospho-Ser473 Akt, Akt, ABL1, VE-PTP, GAPDH, β-actin, followed by species-specific secondary antibodies anti-IgG conjugated with HRP. Proteins were visualized by enhanced chemiluminescence.

[2] = arteries precontracted with phenylephrine, n=5 mice/group
[3] = 30 μmol/L 30 minutes, then Yoda1 1 μmol/L 30 min

recombinant human VE-PTP, sequence (P23467 23-1997): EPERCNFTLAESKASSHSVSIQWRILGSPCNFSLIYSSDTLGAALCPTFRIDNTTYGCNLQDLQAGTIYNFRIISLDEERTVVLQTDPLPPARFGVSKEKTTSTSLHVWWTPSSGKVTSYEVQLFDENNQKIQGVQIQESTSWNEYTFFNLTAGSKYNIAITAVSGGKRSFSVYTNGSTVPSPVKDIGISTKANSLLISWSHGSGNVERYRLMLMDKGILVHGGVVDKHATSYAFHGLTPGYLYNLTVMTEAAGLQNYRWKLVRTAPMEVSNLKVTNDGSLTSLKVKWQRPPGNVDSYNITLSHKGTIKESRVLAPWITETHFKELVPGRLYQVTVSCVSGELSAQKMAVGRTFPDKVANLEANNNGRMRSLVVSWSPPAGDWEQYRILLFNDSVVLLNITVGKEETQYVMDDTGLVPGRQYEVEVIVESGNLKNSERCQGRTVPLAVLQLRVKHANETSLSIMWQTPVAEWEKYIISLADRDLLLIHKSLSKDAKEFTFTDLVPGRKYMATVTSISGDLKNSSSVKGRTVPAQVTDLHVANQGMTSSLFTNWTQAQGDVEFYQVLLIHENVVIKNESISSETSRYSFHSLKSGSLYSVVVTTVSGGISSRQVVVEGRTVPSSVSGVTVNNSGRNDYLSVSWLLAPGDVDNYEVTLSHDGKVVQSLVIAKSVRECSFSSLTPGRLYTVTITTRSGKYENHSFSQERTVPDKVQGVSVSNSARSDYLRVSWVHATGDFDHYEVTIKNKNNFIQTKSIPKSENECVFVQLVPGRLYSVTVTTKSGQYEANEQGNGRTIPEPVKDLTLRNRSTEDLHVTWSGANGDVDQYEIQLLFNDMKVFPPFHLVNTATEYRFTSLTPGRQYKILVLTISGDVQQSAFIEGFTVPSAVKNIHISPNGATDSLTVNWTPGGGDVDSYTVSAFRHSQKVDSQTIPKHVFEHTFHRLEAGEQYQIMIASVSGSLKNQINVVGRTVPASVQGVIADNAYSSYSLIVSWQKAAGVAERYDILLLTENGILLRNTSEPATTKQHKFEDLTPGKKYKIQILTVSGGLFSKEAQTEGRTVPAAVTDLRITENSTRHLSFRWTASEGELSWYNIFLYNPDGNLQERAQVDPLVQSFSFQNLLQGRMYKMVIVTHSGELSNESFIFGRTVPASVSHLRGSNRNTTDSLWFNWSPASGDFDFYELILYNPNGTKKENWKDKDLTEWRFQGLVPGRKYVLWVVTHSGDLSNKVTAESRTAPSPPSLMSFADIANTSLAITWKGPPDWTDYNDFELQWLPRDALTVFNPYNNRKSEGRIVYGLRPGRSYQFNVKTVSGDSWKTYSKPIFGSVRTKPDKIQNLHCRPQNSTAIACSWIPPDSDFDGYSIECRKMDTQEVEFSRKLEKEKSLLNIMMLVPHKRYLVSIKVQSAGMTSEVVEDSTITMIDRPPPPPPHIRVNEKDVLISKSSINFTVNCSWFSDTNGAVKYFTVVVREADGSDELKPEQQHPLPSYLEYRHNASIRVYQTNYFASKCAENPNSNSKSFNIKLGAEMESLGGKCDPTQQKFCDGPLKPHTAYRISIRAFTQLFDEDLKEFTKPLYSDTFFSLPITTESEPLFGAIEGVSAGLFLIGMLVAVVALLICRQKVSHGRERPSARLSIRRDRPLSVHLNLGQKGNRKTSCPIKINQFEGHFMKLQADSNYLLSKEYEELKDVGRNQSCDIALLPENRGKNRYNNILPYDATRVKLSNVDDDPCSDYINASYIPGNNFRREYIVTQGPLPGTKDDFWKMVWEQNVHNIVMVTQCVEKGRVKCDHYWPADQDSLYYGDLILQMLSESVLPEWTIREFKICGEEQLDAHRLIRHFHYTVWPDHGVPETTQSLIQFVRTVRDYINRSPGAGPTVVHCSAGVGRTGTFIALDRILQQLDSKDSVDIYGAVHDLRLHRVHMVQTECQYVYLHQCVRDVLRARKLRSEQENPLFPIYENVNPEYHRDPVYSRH

CCc1nc([C@H](Cc2ccc(NS(=O)(=O)O)cc2)NC(=O)[C@H](Cc2ccccc2)NC(=O)OC)cs1 [Compound 2]
time-dependent dephosphorylation of eNOS Tyr81 by recombinant VE-PTP (recombinant human VE-PTP): abolished | phenylephrine-induced contractions and sodium nitroprusside-induced relaxations ([1]; 1, 3, or 10 μmol/L, 30 minutes): Neither phenylephrine-induced contractions nor sodium nitroprusside-induced relaxations were affected | acetylcholine-induced relaxations of endothelium-intact vessels ([1]; 1, 3, or 10 μmol/L, concentration-dependent): significantly enhanced | relaxation response in presence of eNOS inhibitor L-NAME ([1]; L-NAME 300 μmol/L): abolished | Emax of concentration-dependent relaxation [1, 2]: 73.4±2.9% | pEC50 of concentration-dependent relaxation [1, 2]: 5.14±0.05 log mol/L | right ventricular pressure (Sprague-Dawley rats): significant drop in right ventricular pressure | Yoda1-induced phosphorylation of Akt on Ser473 and eNOS on Ser1177 (eNOS; [3]): also increased | Yoda1-induced phosphorylation of eNOS on Ser633 (eNOS; [3]): not affected | Yoda1-induced phosphorylation of eNOS on Tyr81 (eNOS; [3]): markedly enhanced | eNOS phosphorylation on Tyr81 and Ser1177 (eNOS; 0.3-30 μmol/L, 30 minutes): led to phosphorylation of eNOS on Tyr81 and Ser1177
